# Data reported in the supplement of paper PMC9013687.
# Legend:
# Danio rerio embryo [1] = details: exposure time: 4 dpf
# Protocol: (§1)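 Zebrafish embryos (UFZ-OBI strain) were exposed from 2 hpf for 48 h (2 dpf) or 96 h (4 dpf) at 28 °C; spontaneous tail coiling was scored at 25 hpf. Morphological features from automated image analysis (FishInspector), heart rate and locomotor response were fitted with drc models. Quantal endpoints were dichotomised at 2.5 SD from controls and fitted with a log-logistic model; heart rate, pigmentation and STC were normalised to the replicate control mean. Betamethasone was tested as betamethasone dipropionate, diflorasone as diflorasone diacetate.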
# Danio rerio embryo [2] = experiment: EC50 Eye-jaw distance_Decrease; details: exposure time: 4 dpf
# Protocol: as §1
# Danio rerio embryo [3] = experiment: EC10 LMR ligth decrease; higher = less potent; details: exposure time: 4 dpf
# Protocol: as §1
# Danio rerio embryo [4] = experiment: EC50 Curvature_Increase
# Protocol: as §1
# Danio rerio embryo [5] = experiment: EC10 Any effect; higher = less potent
# Protocol: as §1
# Danio rerio embryo [6] = experiment: EC10 LMR dark; higher = less potent; details: exposure time: 4 dpf
# Protocol: as §1
# Danio rerio embryo [7] = experiment: EC50 Body length_Decrease
# Protocol: as §1
# Danio rerio embryo [8] = experiment: EC10 Eye size_Decrease; higher = less potent
# Protocol: as §1
# Danio rerio embryo [9] = experiment: EC20 Bladder size_Decrease; higher = less potent; details: exposure time: 4 dpf
# Protocol: as §1
# Danio rerio embryo [10] = experiment: EC20 Any effect; higher = less potent
# Protocol: as §1
# Danio rerio embryo [11] = experiment: EC20 Body length_Decrease; higher = less potent
# Protocol: as §1
# Danio rerio embryo [12] = experiment: EC20 Lack of SB; higher = less potent; details: exposure time: 4 dpf
# Protocol: as §1
# Danio rerio embryo [13] = experiment: EC20 Eye size_Decrease; higher = less potent
# Protocol: as §1
# Danio rerio embryo [14] = experiment: EC20 Otolith-eye distance_Decrease; higher = less potent; details: exposure time: 4 dpf
# Protocol: as §1
# Danio rerio embryo [15] = experiment: EC20 Curvature_Increase; higher = less potent
# Protocol: as §1
# Danio rerio embryo [16] = experiment: EC10 Pericard size_Increase; higher = less potent; details: exposure time: 4 dpf
# Protocol: as §1
# Danio rerio embryo [17] = details: exposure time: 4 dpf; remark: listed apart in the source
# Protocol: as §1
# Danio rerio embryo [18] = experiment: EC10 Eye-jaw distance_Decrease; higher = less potent; details: exposure time: 4 dpf
# Protocol: as §1
# Danio rerio embryo [19] = experiment: EC50 Pericard size_Increase; details: exposure time: 4 dpf
# Protocol: as §1
# Danio rerio embryo [20] = experiment: EC50 Eye size_Decrease
# Protocol: as §1
# Danio rerio embryo [21] = system: Danio rerio embryo
# Protocol: as §1
# Danio rerio embryo [22] = experiment: EC20 Pigmentation decrease; higher = less potent
# Protocol: as §1
# Danio rerio embryo [23] = experiment: EC10 Otolith-eye distance_Decrease; higher = less potent; details: exposure time: 4 dpf
# Protocol: as §1
# Danio rerio embryo [24] = experiment: EC10 Pigmentation decrease; higher = less potent
# Protocol: as §1
# Danio rerio embryo [25] = experiment: EC10 Lack of SB; higher = less potent; details: exposure time: 4 dpf
# Protocol: as §1
# Danio rerio embryo [26] = experiment: EC50 Otolith-eye distance_Decrease; details: exposure time: 4 dpf
# Protocol: as §1
# Danio rerio embryo [27] = experiment: EC20 Eye-jaw distance_Decrease; higher = less potent; details: exposure time: 4 dpf
# Protocol: as §1
# Danio rerio embryo [28] = system: Danio rerio embryo; remark: listed apart in the source
# Protocol: as §1
# Danio rerio embryo [29] = experiment: EC10 Curvature_Increase; higher = less potent
# Protocol: as §1
# Danio rerio embryo [30] = experiment: EC20 Pericard size_Increase; higher = less potent; details: exposure time: 4 dpf
# Protocol: as §1
# Danio rerio embryo [31] = experiment: EC20 LMR dark; higher = less potent; details: exposure time: 4 dpf
# Protocol: as §1
# Danio rerio embryo [32] = experiment: EC20 STC bell shape; higher = less potent; details: exposure time: 25 h
# Protocol: as §1
# Danio rerio embryo [33] = experiment: EC10 Body length_Decrease; higher = less potent
# Protocol: as §1
# Danio rerio embryo [34] = experiment: EC50 Bladder size_Decrease; details: exposure time: 4 dpf
# Protocol: as §1
# Danio rerio embryo [35] = experiment: EC10 STC bell shape; higher = less potent; details: exposure time: 25 h
# Protocol: as §1
# Danio rerio embryo [36] = experiment: EC10 Bladder size_Decrease; higher = less potent; details: exposure time: 4 dpf
# Protocol: as §1
# Danio rerio embryo [37] = experiment: EC20 LMR ligth decrease; higher = less potent; details: exposure time: 4 dpf
# Protocol: as §1
structure (smiles),measurement,setting,value
CC(=O)Nc1ccc(O)cc1 [Acetaminophen],EC50 Lack of SB,Danio rerio embryo [1],1440 µM
same,EC50 Eye-jaw distance Decrease,Danio rerio embryo [2],2830 µM
same,EC10 LMR ligth decrease,Danio rerio embryo [3],467 µM
same,EC50 Curvature Increase,Danio rerio embryo [4]; exposure time: 2 dpf,3760 µM
same,EC50 Curvature Increase,Danio rerio embryo [4]; exposure time: 4 dpf,3830 µM
same,EC10 Any effect,Danio rerio embryo [5]; exposure time: 2 dpf,1740 µM
same,EC10 Any effect,Danio rerio embryo [5]; exposure time: 4 dpf,915 µM
same,EC10 LMR dark,Danio rerio embryo [6],337 µM
same,EC50 Body length Decrease,Danio rerio embryo [7]; exposure time: 2 dpf,3990 µM
same,EC50 Body length Decrease,Danio rerio embryo [7]; exposure time: 4 dpf,3940 µM
same,EC10 Eye size Decrease,Danio rerio embryo [8]; exposure time: 2 dpf,1980 µM
same,EC10 Eye size Decrease,Danio rerio embryo [8]; exposure time: 4 dpf,1670 µM
same,EC20 Bladder size Decrease,Danio rerio embryo [9],1150 µM
same,EC20 Any effect,Danio rerio embryo [10]; exposure time: 2 dpf,2050 µM
same,EC20 Any effect,Danio rerio embryo [10]; exposure time: 4 dpf,1150 µM
same,EC20 Body length Decrease,Danio rerio embryo [11]; exposure time: 2 dpf,3500 µM
same,EC20 Body length Decrease,Danio rerio embryo [11]; exposure time: 4 dpf,3170 µM
same,EC20 Lack of SB,Danio rerio embryo [12],1200 µM
same,EC20 Eye size Decrease,Danio rerio embryo [13]; exposure time: 2 dpf,2300 µM
same,EC20 Eye size Decrease,Danio rerio embryo [13]; exposure time: 4 dpf,1740 µM
same,EC20 Otolith-eye distance Decrease,Danio rerio embryo [14],2080 µM
same,EC20 Curvature Increase,Danio rerio embryo [15]; exposure time: 2 dpf,2600 µM
same,EC20 Curvature Increase,Danio rerio embryo [15]; exposure time: 4 dpf,3370 µM
same,EC10 Pericard size Increase,Danio rerio embryo [16],2250 µM
same,EC50 LMR dark,Danio rerio embryo [17],897 µM
same,EC10 Eye-jaw distance Decrease,Danio rerio embryo [18],2200 µM
same,EC50 Pericard size Increase,Danio rerio embryo [19],3010 µM
same,EC50 Eye size Decrease,Danio rerio embryo [20]; exposure time: 2 dpf,2960 µM
same,EC50 Eye size Decrease,Danio rerio embryo [20]; exposure time: 4 dpf,1850 µM
same,EC50 Any effect,Danio rerio embryo [21]; exposure time: 2 dpf,2690 µM
same,EC50 Any effect,Danio rerio embryo [21]; exposure time: 4 dpf,1710 µM
same,EC50 LMR ligth decrease,Danio rerio embryo [21]; exposure time: 4 dpf,821 µM
same,EC50 STC bell shape,Danio rerio embryo [21]; exposure time: 25 h,8110 µM
same,EC20 Pigmentation decrease,Danio rerio embryo [22]; exposure time: 2 dpf,1180 µM
same,EC20 Pigmentation decrease,Danio rerio embryo [22]; exposure time: 4 dpf,2730 µM
same,EC10 Otolith-eye distance Decrease,Danio rerio embryo [23],1780 µM
same,EC10 Pigmentation decrease,Danio rerio embryo [24]; exposure time: 2 dpf,1010 µM
same,EC10 Pigmentation decrease,Danio rerio embryo [24]; exposure time: 4 dpf,2380 µM
same,EC10 Lack of SB,Danio rerio embryo [25],1080 µM
same,EC50 Otolith-eye distance Decrease,Danio rerio embryo [26],2720 µM
same,EC20 Eye-jaw distance Decrease,Danio rerio embryo [27],2410 µM
same,EC50 Pigmentation decrease,Danio rerio embryo [28]; exposure time: 2 dpf,1580 µM
same,EC50 Pigmentation decrease,Danio rerio embryo [28]; exposure time: 4 dpf,16300 µM
same,EC10 Curvature Increase,Danio rerio embryo [29]; exposure time: 2 dpf,2100 µM
same,EC10 Curvature Increase,Danio rerio embryo [29]; exposure time: 4 dpf,3130 µM
same,EC20 Pericard size Increase,Danio rerio embryo [30],2500 µM
same,EC20 LMR dark,Danio rerio embryo [31],500 µM
same,EC20 STC bell shape,Danio rerio embryo [32],6320 µM
same,EC10 Body length Decrease,Danio rerio embryo [33]; exposure time: 2 dpf,3230 µM
same,EC10 Body length Decrease,Danio rerio embryo [33]; exposure time: 4 dpf,2790 µM
same,EC50 Bladder size Decrease,Danio rerio embryo [34],1420 µM
same,EC10 STC bell shape,Danio rerio embryo [35],5590 µM
same,EC10 Bladder size Decrease,Danio rerio embryo [36],1020 µM
same,EC20 LMR ligth decrease,Danio rerio embryo [37],570 µM
